Values quoted from earlier work, collected in patent US8703048B2, “Buffered swelling media for radiation sterilized hydrophilic coatings” (Coloplast A/S, priority 2008, dated 2014).

Conditions: in water

pKa3 | Compound | pKa1 | pKa2
9.73 | NCCC(=O)N[C@@H](Cc1cnc[nH]1)C(=O)O [carnosine] | 2.73 | 6.87
 | Nc1ccccc1C(=O)O [anthranilic acid] | 2.11 | 4.95
 | O=C(O)CCCC(=O)O [glutaric acid] | 4.31 | 5.41

Same assay, conditions: in water; single value given

Compound | pKa
F [hydrofluoric acid] | 3.45
O=C(O)[C@H](O)[C@@H](O)[C@H](O)[C@H](O)CO [gluconic acid] | 3.56
N#CO [cyanic acid] | 3.92
O=C(O)CCO [3-hydroxypropionic acid] | 3.73
O=C(O)CNC(=O)c1ccccc1 [hippuric acid] | 3.80
